Data taken from patent US20240148821A1, “PHARMACEUTICAL USE OF CYCLIC PEPTIDE COMPOUND” (CHUGAI SEIYAKU KABUSHIKI KAISHA, priority 2021, published 2024).
Numbered stars: 1 amine (or outer) side, 2 acyl side, 3 side chain; on linkers, the order of the positions; unused ones are H or OH. Bridge positions count the residues as written; N and C are the ends. Square brackets hold non-standard residues; d marks the D form. Peptide text beside a SMILES is read from it. * marks the point of attachment. hPhe(3,5-F2-4-CF3) = N[C@@H](CCc1cc(F)c(C(F)(F)F)c(F)c1)C(=O)O; hPhe(3-Cl-4-CF3) = N[C@@H](CCc1ccc(C(F)(F)F)c(Cl)c1)C(=O)O; NMePhe(4-CF3) = CN[C@@H](Cc1ccc(C(F)(F)F)cc1)C(=O)O; X120 = O=C([C@H](Cc1cc(F)cc(Br)c1)N[*:1])[*:2]; NEtPhe(4-Me) = CCN[C@@H](Cc1ccc(C)cc1)C(=O)O; NMePhe(4-Me) = CN[C@@H](Cc1ccc(C)cc1)C(=O)O; NMedβ3hAla = C[C@H](CC(=O)[*:2])N(C)[*:1]; NMeGly(cPent) = CN[C@H](C(=O)O)C1CCCC1; Phe(3-I) = N[C@@H](Cc1cccc(I)c1)C(=O)O; Pro(4,4-F2) = O=C(O)[C@@H]1CC(F)(F)CN1; NMeGly(cBu) = CN[C@H](C(=O)O)C1CCC1; NMeY = CN[C@@H](Cc1ccc(O)cc1)C(=O)O; NMeCha = CN[C@@H](CC1CCCCC1)C(=O)O; NMeChg = CN[C@H](C(=O)O)C1CCCCC1; NMeD = CN[C@@H](CC(=O)O)C(=O)O; NMeL = CN[C@@H](CC(C)C)C(=O)O; NMeAbu = CC[C@H](NC)C(=O)O; Morpholide = C1CN(*)CCO1; NMeA = CN[C@@H](C)C(=O)O; NMeAib = CNC(C)(C)C(=O)O; Nle = CCCC[C@H](N)C(=O)O; Piperidide = C1CCN(*)CC1; Pra = C#CC[C@H](N)C(=O)O; Pyrrolidide = C1CCN(*)C1; Ac5c = NC1(C(=O)O)CCCC1; Aze = O=C(O)[C@@H]1CCN1; Sar = CNCC(=O)O

Test system: Human pancreatic cancer cell line AsPC-1 (G12D mutation Kras)
Assay: AsPC-1 cell growth inhibition (AsPC-1 CGI)
Format: cell-based
Conditions: read-out: AsPC-1 cell growth inhibition, 50% growth inhibitory concentration (IC50 value); 96 hours, CellTiter-Glo, values classified in ranges
Experimental: Test compounds were serially dilated with dimethyl sulfoxide, and 200 nL was then dispensed to a U-bottom 96-well plate using Labcyte Echo. […] The cell suspension was dispensed to a. plate containing a test compound at 100 μL per well and incubated at 37° C. in a 5% carbon dioxide gas incubator. 96 hours later, 80 μL of CellTiter-Glo (Promega) was added to each well and fluorescence was measured.

SMILES | IC50
C#CC[C@@H]1NC(=O)[C@H](Cc2cccc(I)c2)NC(=O)CN(C)C(=O)[C@H](Cc2ccc(C(F)(F)F)cc2)N(C)C(=O)CN(C)C(=O)CN(C)C(=O)[C@H]([C@@H](C)CC)NC(=O)[C@H](CC(C)C)N(C)C(=O)C[C@@H](C(=O)N2CCCCC2)N(C)C(=O)[C@H](CC(C)C)NC(=O)C(C)(C)N(C)C1=O [Compound 1361] ([NMeL]I[Sar][Sar][NMePhe(4-CF3)][Sar][Phe(3-I)][Pra][NMeAib]L[NMeD]-Piperidide; lactam N-11) | > 500 nM
CC[C@H](C)[C@@H]1NC(=O)[C@H](C2CCC2)N(C)C(=O)C[C@@H](C(=O)N2CCCC2)N(C)C(=O)[C@H](C2CCCCC2)N(C)C(=O)C2(CCCC2)NC(=O)[C@@H]2CC(F)(F)CN2C(=O)[C@H](CCc2ccc(C(F)(F)F)c(Cl)c2)NC(=O)CN(C)C(=O)[C@H](CC2CCCCC2)N(C)C(=O)CN(C)C(=O)CN(C)C1=O [Compound 1363] ([NMeGly(cBu)]I[Sar][Sar][NMeCha][Sar][hPhe(3-Cl-4-CF3)][Pro(4,4-F2)][Ac5c][NMeChg][NMeD]-Pyrrolidide; lactam N-11) | ≤ 20 nM
CC[C@H](C)[C@@H]1NC(=O)[C@H](CC(C)C)N(C)C(=O)C[C@@H](C(=O)N2CCOCC2)N(C)C(=O)[C@H](C2CCCC2)N(C)C(=O)C2(CCCC2)NC(=O)[C@@H]2CCCN2C(=O)[C@H](CCc2cc(F)c(C(F)(F)F)c(F)c2)NC(=O)CN(C)C(=O)[C@H](Cc2ccc(C)cc2)N(CC)C(=O)[C@@H]2CCN2C(=O)[C@H](C)N(C)C1=O [Compound 1368] ([NMeL]I[NMeA][Aze][NEtPhe(4-Me)][Sar][hPhe(3,5-F2-4-CF3)]P[Ac5c][NMeGly(cPent)][NMeD]-Morpholide; lactam N-11) | ≤ 20 nM
CCCC[C@@H]1NC(=O)[C@H](Cc2cc(F)cc(Br)c2)NC(=O)CN(C)C(=O)[C@H](Cc2ccc(OC)cc2)N(C)C(=O)[C@@H]2CCN2C(=O)[C@H](C)N(C)C(=O)[C@H]([C@@H](C)CC)NC(=O)[C@H](CC)N(C)C(=O)C[C@@H](C(=O)N2CCCCC2)N(C)C(=O)[C@H](CC(C)C)NC(=O)C(C)(C)N(C)C1=O [Compound 1372] ([NMeAbu]I[NMeA][Aze][NMeY](Me)[Sar][X120][Nle][NMeAib]L[NMeD]-Piperidide; lactam N-11) | > 500 nM
CC[C@H](C)[C@@H]1NC(=O)[C@H](C)N(C)C(=O)C[C@@H](C)N(C)C(=O)[C@H](CC(C)C)NC(=O)C(C)(C)N(C)C(=O)[C@H](CC(C)C)NC(=O)[C@H](CCc2ccc(C(F)(F)F)c(Cl)c2)NC(=O)CN(C)C(=O)[C@H](Cc2ccc(C)cc2)N(C)C(=O)[C@@H]2CCN2C(=O)CN(C)C1=O [Compound 1377] (cyclo([Aze][NMePhe(4-Me)][Sar][hPhe(3-Cl-4-CF3)]L[NMeAib]L[NMedβ3hAla][NMeA]I[Sar])) | > 500 nM
CC[C@H](C)[C@@H]1NC(=O)[C@H](CC(C)C)N(C)C(=O)C[C@@H](C)N(C)C(=O)[C@H](CC(C)C)NC(=O)C(C)(C)N(C)C(=O)[C@H](CC(C)C)NC(=O)[C@H](CCc2ccc(C(F)(F)F)c(Cl)c2)NC(=O)CN(C)C(=O)[C@H](Cc2ccc(C)cc2)N(C)C(=O)[C@@H]2CCN2C(=O)CN(C)C1=O [Compound 1386] (cyclo([Aze][NMePhe(4-Me)][Sar][hPhe(3-Cl-4-CF3)]L[NMeAib]L[NMedβ3hAla][NMeL]I[Sar])) | > 500 nM
CC[C@H](C)[C@@H]1NC(=O)[C@H](C)N(C)C(=O)C[C@@H](C)N(C)C(=O)[C@H](CC(C)C)NC(=O)C(C)(C)N(C)C(=O)[C@H](CC(C)C)NC(=O)[C@H](CCc2ccc(C(F)(F)F)c(Cl)c2)NC(=O)CN(C)C(=O)[C@H](CC2CCCCC2)N(C)C(=O)[C@@H]2CCN2C(=O)CN(C)C1=O [Compound 1387] (cyclo([Aze][NMeCha][Sar][hPhe(3-Cl-4-CF3)]L[NMeAib]L[NMedβ3hAla][NMeA]I[Sar])) | > 500 nM
CC[C@H](C)[C@@H]1NC(=O)[C@H](C)N(C)C(=O)C[C@@H](C)N(C)C(=O)[C@H](CC(C)C)NC(=O)C(C)(C)N(C)C(=O)[C@H](CC(C)C)NC(=O)[C@H](CCc2ccc(C(F)(F)F)c(Cl)c2)NC(=O)CN(C)C(=O)[C@H](Cc2ccc(C(F)(F)F)cc2)N(C)C(=O)[C@@H]2CCN2C(=O)CN(C)C1=O [Compound 1392] (cyclo([Aze][NMePhe(4-CF3)][Sar][hPhe(3-Cl-4-CF3)]L[NMeAib]L[NMedβ3hAla][NMeA]I[Sar])) | > 500 nM
CC[C@H](C)[C@@H]1NC(=O)[C@H](CC(C)C)N(C)C(=O)C[C@@H](C)N(C)C(=O)[C@H](CC(C)C)NC(=O)C(C)(C)N(C)C(=O)[C@H](CC(C)C)NC(=O)[C@H](CCc2ccc(C(F)(F)F)c(Cl)c2)NC(=O)CN(C)C(=O)[C@H](Cc2ccc(C(F)(F)F)cc2)N(C)C(=O)CN(C)C(=O)CN(C)C1=O [Compound 1396] (cyclo(I[Sar][Sar][NMePhe(4-CF3)][Sar][hPhe(3-Cl-4-CF3)]L[NMeAib]L[NMedβ3hAla][NMeL])) | > 500 nM
